Source: patent US20220370395A1, “ENHANCER OF PHOTODYNAMIC EFFECT IN ALA-PDT OR ALA-PDD” (SBI PHARMACEUTICALS CO., LTD., priority 2017, published 2022)

Legend:
[1] = cited from earlier work
[2] = test system: cancer cell strains DU145, HT29, HCC2998, MKN7, MDA-MB-231, MCF-7; assay: Intracellular and extracellular PpIX amount in cancer cell strains, ALA plus serial dilutions of inhibitor (Examples 1, 3, 4, 5); assay type: cell-based; conditions: in combination with 1 mM ALA; for extracellular PpIX amount (corrected with amount of protein) / intracellular PpIX amount (corrected with amount of protein): cultured 4 hours, compared to ALA alone, six cancer cell strains
Description: Six types of cells strains were employed as cancer cell strains: […], large intestine cancer cell strains (HT29, HCC2998), stomach cancer cell strain (MKN7), and mammary gland cancer cell strains (MDA-MB-231, MCF-7). For the medium, RPMI 1640 (from Wako) supplemented with 5% inactivated fetal bovine serum (FBS, from Biowest) was employed (hereinafter referred to as RPMI medium). Two types of inhibitors are known to exist for dynamin: one is an inhibitor that targets the GAS domain, whereas the other is an inhibitor that targets the PH domain. Iminodyn22 (from abcam) was used as the inhibitor that targets the GAS domain. Further, OcTMAB (from abcam) was used as the inhibitor that targets the PH domain.
To 1 mg of OcTMAB was added 255 μL of dimethyl sulfoxide (DMSO, from Wako), and this was mixed to make an OcTMAB 10 mM stock solution. Further, to 1 mg of Iminodyn22 was added 208 μL of DMSO, and this was mixed to make an Iminodyn22 10 mM stock solution. The OcTMAB 10 mM stock solution was diluted with the RPMI medium to adjust to 16 μM. The Iminodyn22 10 mM stock solution was diluted with the RPMI medium to adjust to 40 μM. The OcTMAB and Iminodyn22 prepared were each serially diluted with the RPMI medium to create six serial dilutions. Each of these dynamin inhibitor-containing medium was mixed with an equal amount of the RPMI medium comprising 2 mM aminolevulinic acid hydrochloride salt (ALA) to prepare ALA/OcTMAB and ALA/Iminodyn22-containing mediums.
Each cancer cell strain was seeded in a 96-well plate (black with transparent bottom; from Corning) at a density of 1.25×10^4 cells/well (only MDA-MB-231 was seeded at 2.0×10^4 cells/well), and this was cultured overnight at 37° C. After the overnight culture, the culture supernatant was removed, 200 μL each of ALA/OcTMAB-containing medium or ALA/Iminodyn22-containing medium described above were added to each well, and this was cultured for 4 hours under a 37° C. condition. After 4 hours, 100 μL of each culture supernatant were transferred to another 96-well plate, and this was set as the extracellular PpIX measuring plate. The remaining culture supernatant was removed, each cell strain was washed once with phosphate buffered saline (PBS, from Wako), and then 100 μL per well of 1% dodecyl sodium sulfate (SDS, from Wako) aqueous solution was added to dissolve the cells, and this was set as the intracellular PpIX measuring plate. Protoporphyrin IX standard sample (PpIX, from Funakoshi Co., Ltd.) was dissolved in DMSO solution to create 1 mM PpIX stock solution. The 1 mM PpIX stock solution was diluted with each of 1% SDS solution and RPMI medium, and PpIX standard solutions with final concentrations of 0-1000 nM were prepared. The PpIX standard solutions prepared with 1% SDS were added to unused wells in the intracellular accumulation PpIX measuring plate, and the standard solutions prepared with the RPMI medium were added to unused portions of the extracellular export PpIX measuring plate at 100 μL each. The fluorescence intensity of the intracellular PpIX measuring plate and the extracellular PpIX measuring plate was measured with a microplate reader (infinite M200PRO; from TECAN) under the condition of excitation light at 405 nm and measurement wavelength at 635 nm. After measurement, a standard curve was created from the fluorescence intensity of the PpIX standard solutions, and the amount of PpIX in each well was calculated from the standard curve.
In order to correct the amount of PpIX measured by the above method with the amount of protein, the amount of protein contained in each sample of the intracellular PpIX measuring plate was measured. Pierce™ BCA Protein Assay Kit (from Thermo Fisher) was used for measuring the amount of protein. BCA reagent A and BCA reagent B were mixed at a proportion of 50:1 to prepare the BCA reaction solution. […]

[3] = test system: cancer cell strains DU145, HT29, HCC2998, MKN7, MDA-MB-231, MCF-7; assay: Intracellular and extracellular PpIX amount, combination use of OcTMAB and FTC with ALA (Example 2); assay type: cell-based; conditions: final concentration ALA 1 mM, OcTMAB 8 μM, FTC 10 μM, 4 hours; compared between combination use groups
Experimental: Six types of cells strains were employed as cancer cell strains: […], large intestine cancer cell strains (HT29, HCC2998), stomach cancer cell strain (MKN7), and mammary gland cancer cell strains (MDA-MB-231, MCF-7). Fumitremorgin C (FTC, from sigma) was dissolved in DMSO to create a 2 mM stock solution, and then adjusted to 40 μM with the RPMI medium. For OcTMAB, the 10 mM stock solution was adjusted with the RPMI medium to 32 μM. The 40 μM FTC-containing RPMI medium was added to an equal amount of 32 μM OcTMAB-containing medium to prepare a 16 μM OcTMAB/20 μM FTC-containing medium. Note that FTC is an inhibitor of ABCG2 (a transporter that extracellularly exports PpIX), and is known as a compound that has the effect of inhibiting extracellular export of PpIX.
Each cancer cell strain was seeded in a 96-well plate (black with transparent bottom) at a density of 1.25×10^4 cells/well (only MDA-MB-231 was seeded at 2.0×10^4 cells/well), and this was cultured overnight at 37/C. After the overnight culture, the culture supernatant was removed, 100 μL each of 2 mM ALA-containing RPMI medium was added to each well. […]
In order to correct the above PpIX amount measurement result with the amount of protein, the amount of protein in each sample for measuring the intracellular PpIX amount was measured. […]

| SMILES | time until metabolized in vivo and excreted [1] [h] | inhibitor concentration at which the decrease of extracellular PpIX amount peaks ([2]; 4 hours) [µM] | inhibitor concentration at which the increase in the amount of PpIX accumulated peaks ([2]; 4 hours) [µM] | extracellular PpIX amount (corrected with amount of protein) [2] | intracellular PpIX amount (corrected with amount of protein) [2] | extracellular PpIX amount (PpIX extracellular export) [3] | intracellular PpIX amount [3] |
| --- | --- | --- | --- | --- | --- | --- | --- |
| NCC(=O)CCC(=O)O [ALA, 5-aminolevulinic acid] | ≤ 48 |  |  |  |  |  |  |
| O=c1[nH]c2ccccc2n1C1CCN(Cc2ccc(-c3nc4cc5nc[nH]c5cc4nc3-c3ccccc3)cc2)CC1 [Akt inhibitor VIII] |  | ~5 | ~5 | decrease of extracellular PpIX amount | increase in the amount of PpIX accumulated |  |  |
| CCCCCCCCCCCCCC[N+](C)(C)C.[Br-] [MiTMAB] |  |  |  | decrease of extracellular PpIX amount dependent on the concentration of MiTMAB | increase of intracellular PpIX amount dependent on the concentration of MiTMAB |  |  |
| CCCCCCCCCCCCCCCCCC[N+](C)(C)C.[Br-] [OcTMAB] |  |  |  | decrease of extracellular PpIX amount dependent on the concentration of OcTMAB | increase of intracellular PpIX amount dependent on the concentration of OcTMAB | effect similar to ETC for suppressing PpIX extracellular export | increased intracellular PpIX similar to or more than the ALA and ETC combination use group |
| CCCCCCCCCCCCCCCCCC[N+](C)(C)CCN1C(=O)[C@@H]2[C@H](C1=O)[C@H]1CC[C@@H]2O1.[Br-] [RTIL13] |  |  | ~10 | decrease of extracellular PpIX amount dependent on the concentration of RTIL13 | increase in the amount of PpIX accumulated |  |  |
| N=c1oc2c(O)c(O)ccc2cc1C(=O)NCCCNC(=O)c1cc2ccc(O)c(O)c2oc1=N [iminodyn22] |  |  |  | no change in the intracellular and extracellular PpIX amounts | no change in the intracellular and extracellular PpIX amounts |  |  |
